According to PubChem BioAssay AID248 (DTP/NCI, 2004):
Several values for one entry are separate records, joined by “and”; a condition that tells them apart may be missing. Identical values can stand only once. Inconclusive results and toxic doses are left out. Rule as the data show it: active = T/C of 150% or more; inactive = T/C below 125%.

System: L1210 leukemia ip in BDF1 mice, survival T/C
Experiment: NCI In Vivo Anticancer Drug Screen. Data for tumor model L1210 Leukemia (intraperitoneal) in B6D2F1 (BDF1) mice
Conditions: endpoint: mean survival time, higher = longer survival
Procedure, shortened: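 Read-out is survival time, reported as the treated-group measurement over the vehicle-control measurement.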

[1] = dose: 15.0 mg/kg/injection, schedule: Q01DX Z (ip), vehicle: carboxymethylcellulose (CMC)
[2] = dose: 100.0 mg/kg/injection, schedule: Q01DX001 (ip), vehicle: saline
[3] = dose: 200.0 mg/kg/injection, schedule: Q01DX001 (ip), vehicle: saline
[4] = dose: 400.0 mg/kg/injection, schedule: Q01DX001 (ip), vehicle: saline
[5] = dose: 100.0 mg/kg/injection, schedule: Q04DX003 (ip), vehicle: saline
[6] = dose: 200.0 mg/kg/injection, schedule: Q04DX003 (ip), vehicle: saline
[7] = dose: 400.0 mg/kg/injection, schedule: Q04DX003 (ip), vehicle: saline
[8] = dose: 100.0 mg/kg/injection, schedule: Q04DX002 (ip), vehicle: Klucel (hydroxypropylcellulose) (HPC)
[9] = dose: 200.0 mg/kg/injection, schedule: Q04DX002 (ip), vehicle: Klucel (hydroxypropylcellulose) (HPC)
[10] = dose: 400.0 mg/kg/injection, schedule: Q04DX002 (ip), vehicle: Klucel (hydroxypropylcellulose) (HPC)
[11] = dose: 100.0 mg/kg/injection, schedule: Q01DX009 (ip), vehicle: Klucel (hydroxypropylcellulose) (HPC)
[12] = dose: 100.0 mg/kg/injection, schedule: Q04DX003 (ip), vehicle: Klucel (hydroxypropylcellulose) (HPC)
[13] = dose: 200.0 mg/kg/injection, schedule: Q01DX009 (ip), vehicle: Klucel (hydroxypropylcellulose) (HPC)
[14] = dose: 200.0 mg/kg/injection, schedule: Q04DX003 (ip), vehicle: Klucel (hydroxypropylcellulose) (HPC)
[15] = dose: 400.0 mg/kg/injection, schedule: Q01DX009 (ip), vehicle: Klucel (hydroxypropylcellulose) (HPC)
[16] = dose: 400.0 mg/kg/injection, schedule: Q04DX003 (ip), vehicle: Klucel (hydroxypropylcellulose) (HPC)

Measured: T/C

CN=C(c1ccc(NC(=O)c2ccc(C(=O)Nc3ccc(C(=NC)N4CCOCC4)cc3)cc2)cc1)N1CCOCC1
inactive: dose: 0.9 mg/kg/injection, schedule: Q01DX Z (ip), vehicle: carboxymethylcellulose (CMC) 86 % of control | dose: 1.87 mg/kg/injection, schedule: Q01DX Z (ip), vehicle: carboxymethylcellulose (CMC) 91 % of control | dose: 3.75 mg/kg/injection, schedule: Q01DX Z (ip), vehicle: carboxymethylcellulose (CMC) 93 % of control | dose: 7.5 mg/kg/injection, schedule: Q01DX Z (ip), vehicle: carboxymethylcellulose (CMC) 91 % of control | [1] 101 % of control

COc1ccc(NC(=O)OCCN(CCOC(=O)Nc2ccc(OC)cc2)Cc2ccccc2)cc1
inactive: [2] 94 % of control | [3] 96 % of control | [4] 100 % of control

NC(Cc1ccc(O)c(I)c1)C(=O)O (stereo unspecified)
inactive: dose: 100.0 mg/kg/injection, schedule: Q01DX009 (ip), vehicle: saline 96 % of control | [5] 101 % of control | dose: 200.0 mg/kg/injection, schedule: Q01DX009 (ip), vehicle: saline 98 % of control | [6] 93 % of control | [7] 100 % of control

CCCCCCCCCCCCCCOc1ccc(F)cc1F
inactive: [8] 111 % of control | [9] 107 % of control | [10] 96 % of control

COc1ccc(OC)c(N)c1
inactive: dose: 25.0 mg/kg/injection, schedule: Q01DX009 (ip), vehicle: Klucel (hydroxypropylcellulose) (HPC) 88 % of control | dose: 50.0 mg/kg/injection, schedule: Q01DX009 (ip), vehicle: Klucel (hydroxypropylcellulose) (HPC) 93 % of control | [11] 93 % of control

CCOC(=O)CNc1ccc(F)c(Cl)c1
inactive: [8] 106 % of control and 108 % of control | [9] 98 % of control and 112 % of control | [10] 102 % of control | dose: 600.0 mg/kg/injection, schedule: Q04DX002 (ip), vehicle: Klucel (hydroxypropylcellulose) (HPC) 98 % of control

CCCCNP(=S)(NCCCC)c1ccccc1
inactive: [2] 98 % of control | [3] 93 % of control | [4] 95 % of control

COC(=O)c1ccccc1N=NNc1ccccc1-c1nc(N)nc(N)n1
inactive: [11] 95 % of control | [12] 103 % of control | [13] 104 % of control | [14] 106 % of control | [15] 98 % of control | [16] 95 % of control

ClCCC(c1ccccc1)N1CCCCC1 (stereo unspecified)
inactive: dose: 44.0 mg/kg/injection, schedule: Q01DX001 (ip), vehicle: saline 97 % of control and 106 % of control | dose: 66.0 mg/kg/injection, schedule: Q01DX001 (ip), vehicle: saline 96 % of control and 97 % of control | dose: 150.0 mg/kg/injection, schedule: Q01DX001 (ip), vehicle: saline 97 % of control and 92 % of control | [3] 93 % of control

Cc1ccccc1CC1(Br)CC(C)(C)c2ccccc2C1=O (stereo unspecified)
inactive: [12] 93 % of control | [14] 106 % of control | [16] 88 % of control

CCOC(=O)Cn1c(C(F)(F)F)nc2nc(Cl)c(Cl)nc21
inactive: dose: 50.0 mg/kg/injection, schedule: Q01DX009 (ip), vehicle: saline with Tween-80 97 % of control | dose: 100.0 mg/kg/injection, schedule: Q01DX009 (ip), vehicle: saline with Tween-80 108 % of control | dose: 200.0 mg/kg/injection, schedule: Q01DX009 (ip), vehicle: saline with Tween-80 97 % of control

COC1(c2ccccc2)CN(Cc2ccccc2)CCO1 (stereo unspecified)
inactive: [11] 95 % of control | [13] 98 % of control

O=C(Nc1cccc(C2=NCCN2)c1)c1ccc2ccc(C(=O)Nc3cccc(C4=NCCN4)c3)cc2c1
inactive: [1] 111 % of control | dose: 30.0 mg/kg/injection, schedule: Q01DX Z (ip), vehicle: carboxymethylcellulose (CMC) 102 % of control | dose: 60.0 mg/kg/injection, schedule: Q01DX Z (ip), vehicle: carboxymethylcellulose (CMC) 106 % of control | dose: 120.0 mg/kg/injection, schedule: Q01DX Z (ip), vehicle: carboxymethylcellulose (CMC) 113 % of control | dose: 125.0 mg/kg/injection, schedule: Q01DX Z (ip), vehicle: water 118 % of control

CCCCCCCCC(O)CCCCC (stereo unspecified)
inactive: [11] 100 % of control | [12] 106 % of control | [13] 98 % of control | [14] 103 % of control | [15] 94 % of control | [16] 109 % of control

Oc1c(Br)cc(Br)cc1C=Nc1ccc(Br)cc1.Oc1c(Br)cc(Br)cc1C=Nc1ccc(Br)cc1.[Co]
inactive: dose: 100.0 mg/kg/injection, schedule: Q04DX003 (ip), vehicle: saline with Tween-80 95 % of control | dose: 200.0 mg/kg/injection, schedule: Q04DX003 (ip), vehicle: saline with Tween-80 95 % of control | dose: 400.0 mg/kg/injection, schedule: Q04DX003 (ip), vehicle: saline with Tween-80 95 % of control

CCNC(=O)NC(=O)CN1CCOCC1
inactive: dose: 100.0 mg/kg/injection, schedule: Q04DX003 (ip), vehicle: saline sonified 100 % of control | dose: 200.0 mg/kg/injection, schedule: Q04DX003 (ip), vehicle: saline sonified 102 % of control | dose: 400.0 mg/kg/injection, schedule: Q04DX003 (ip), vehicle: saline sonified 100 % of control

O=C1OCC2(CO)SC(c3ccccc3)NC12 (stereo unspecified)
inactive: [5] 98 % of control | [6] 92 % of control | [7] 98 % of control

N=C(N)c1ccc(OCCCCOc2ccc(NC(=O)c3cccc(S(=O)(=O)F)c3)cc2)cc1
inactive: dose: 50.0 mg/kg/injection, schedule: Q01DX001 (ip), vehicle: saline with Tween-80 98 % of control | dose: 100.0 mg/kg/injection, schedule: Q01DX001 (ip), vehicle: saline with Tween-80 95 % of control | dose: 200.0 mg/kg/injection, schedule: Q01DX001 (ip), vehicle: saline with Tween-80 97 % of control

Cc1ccc(S(=O)(=O)N/N=C\c2cccc([N+](=O)[O-])c2)cc1
inactive: [11] 103 % of control | [13] 98 % of control | [15] 93 % of control

NC(=S)N/N=C/c1ccc(Br)cn1
inactive: dose: 6.25 mg/kg/injection, schedule: Q01DX009 (ip), vehicle: saline with Tween-80 117 % of control | dose: 12.5 mg/kg/injection, schedule: Q01DX009 (ip), vehicle: saline with Tween-80 113 % of control

N#CC(Cc1ccccc1)(c1ccccc1)c1ccccc1
inactive: dose: 50.0 mg/kg/injection, schedule: Q01DX001 (ip), vehicle: saline 112 % of control | [2] 114 % of control | [3] 89 % of control | [4] 97 % of control
